Compared with `CC1CCc2c(N3CCC(Cc4ccccc4)CC3)c(F)cc3c(=O)c(C(=O)O)cn1c23` (configuration not stated), `Cc1c(N2C[C@H](CF)[C@H](N)C2)c(F)cc2c(=O)c(C(=O)O)cn(C3CC3)c12` is lower in melting point: 230 to 232 °C for the first, 160 to 165 °C for the second.

First: O=c1[nH]c2ccccc2n1-c1ncnc2nn(C3CCCC3)cc12
Second: CC(=O)Nc1nc(CCN2CCC(c3c[nH]c4ccccc34)CC2)cs1
The melting point of the first is higher: 236 to 240 °C for the first, 203 to 204 °C for the second.

Compared with `COc1ccccc1CCNC[C@H](O)COc1ncccc1C#N`, `C#CCOCc1c(C)nc2c(OCc3ccccc3OC)cccn12` is higher in melting point: 97 to 99 °C for the first, 107 to 108 °C for the second.

First: CC(=O)NCc1ccc(CN2CCN(c3cccnc3)CC2)cc1
Second: CC(CCn1c(=O)[nH]c2cc(F)ccc21)N1CCN(c2ccc(F)cc2)CC1 (configuration not stated)
The melting point of the first is lower: 139 to 140 °C for the first, 188 to 193 °C for the second.

Compared with `O=C(Oc1ccc(Oc2ccccc2)cc1)c1ccc(C(=O)Oc2ccc(Oc3ccccc3)cc2)cc1`, `O=C(c1ccccc1)c1ccc(-c2ccc(-c3ccc(-c4ccc(C(=O)c5ccccc5)s4)s3)s2)s1` is higher in melting point: 193 to 194 °C for the first, 307 to 310 °C for the second.

First: CNC(=O)C(SC)c1cc(Cl)cc(C(=O)c2ccccc2)c1N (configuration not stated)
Second: O=C(c1ccccc1)c1cccc(Cl)c1[N+](=O)[O-]
The melting point of the first is higher: 170 to 171 °C for the first, 126 °C for the second.

First: CNC(=O)NCCSCc1[nH]cnc1C
Second: CCOC(=O)NN=Cc1c[nH]c(C(C)(C)C)n1
The melting point of the first is lower: 158 to 159 °C for the first, 194 to 197 °C for the second.

Compared with `COc1ccc(-c2c(SCc3ccncc3)oc3cc(OC)ccc3c2=O)cc1`, `CC(C)Oc1ccc(NC(=O)OCc2cc3cc(-c4ccc(F)cc4)ccc3o2)c(C(=O)O)c1` is higher in melting point: 140 to 141 °C for the first, 195 to 196 °C for the second.

Going from `Cn1c(N2CCOC(c3nc(-c4ccccc4)no3)C2)nc(-c2ccncn2)cc1=O` (configuration not stated) to `CC(C)n1nc(-c2nc(-c3cn[nH]c3)c(N)nc2-c2ccccc2)ccc1=O`, the melting point rises from 167 °C to greater than 250 °C.

First: CCCN(CCC)CC1CCN(CCNC(=O)N2c3ccccc3C(=O)Nc3cccnc32)C1 (configuration not stated)
Second: COC1=C(OC)C(=O)C2=C(CC(CCCCCCCCN3CCN(c4ccccn4)CC3)C2)C1=O
The melting point of the first is higher: 134 to 138 °C for the first, 80 to 84 °C for the second.

Compared with `O=CC=Cc1ccc(O)c(O)c1`, `CCOC(=O)CCC(C)c1ccc(O)cc1` (configuration not stated) is lower in melting point: 200 to 202 °C for the first, 32 to 34 °C for the second.

First: CNC1CCN(C(=O)CC2=C(n3nc(-c4c(-c5ccccc5)nn5ccccc45)ccc3=O)CCCC2)CC1
Second: Cc1nc(-n2ccc(OCc3ccccn3)cc2=O)sc1C(=O)NCc1ccccc1
The melting point of the first is lower: 101 to 105 °C for the first, 202 to 205 °C for the second.

First: Cc1cn(C2CC(O)C(CO[Si](C)(C)C(C)(C)C)O2)c(=O)[nH]c1=O (configuration not stated)
Second: CCC(=O)NC(C)(C)COc1cccc2nc(C)c(C(=O)O)c(N)c12
The melting point of the first is higher: 193 to 194 °C for the first, 189 to 193 °C for the second.

First: CCOc1ccc(N2CC(C(=O)OC)CC2=O)cc1 (configuration not stated)
Second: CCOc1ccc(-c2csc(-c3cccc(C(=O)O)c3)n2)cc1
The melting point of the first is lower: 67 to 69 °C for the first, 231 to 232 °C for the second.

First: COc1cc(C2=C(c3cn(CCCNC(=O)C(CO)NC(=O)OC(C)(C)C)c4ccccc34)C(=O)NC2=O)cc(OC)c1OC (configuration not stated)
Second: COc1cc(-c2nc(C)cs2)cc(OC)c1OC
The melting point of the first is higher: 112 to 114 °C for the first, 105 to 106 °C for the second.

First: CN(C)S(=O)(=O)c1cc2c(c(Cl)c1Cl)OC(C(=O)OCC(=O)O)C2 (configuration not stated)
Second: COC(=O)c1ccc(S(C)(=O)=O)c(C)c1Cl
The melting point of the first is higher: 149 to 150 °C for the first, 107 to 108 °C for the second.

Going from `Nc1cc2nc(C(=O)O)c(=O)[nH]c2cc1[N+](=O)[O-]` to `CC(=O)Nc1ccc2nc(-c3cc(C)c(OCCO)c(C)c3)[nH]c(=O)c2c1`, the melting point rises from 300 °C to greater than 300 °C.

First: O=S(=O)(NC1CCCCC1)c1ccc2c(c1)S(=O)(=O)NC1CCCN21 (configuration not stated)
Second: Cc1nc2ncnn2c(N2CCC(C)CC2)c1C1CCCC1
The melting point of the first is higher: 195 to 197 °C for the first, 145 °C for the second.

`C[C@@H](NC(=O)c1c[nH]c2ncc(-c3nn(C)c4c(F)c(F)ccc34)nc12)C(=O)N1CC(C#N)C1` and `CN1CCN(C(=O)OC2C3=C(SCCS3)C(=O)N2c2ccc3c(Cl)ccnc3n2)CC1` (configuration not stated) cannot be ordered by melting point: 240 to 250 °C for the first, 240 °C for the second.

First: CC(C)(CC(=O)O)C(Cl)CC(Cl)(Cl)C(F)(F)F (configuration not stated)
Second: CC(C)Cc1ccc(C(CC(=O)O)C(=O)O)s1 (configuration not stated)
The melting point of the first is lower: 61 °C for the first, 106 to 108 °C for the second.

First: N#CC1(N2C(=O)C3=C(CCCC3)C2=O)CCCCC1
Second: Oc1nnc(O)c2c1CCCC2
The melting point of the first is lower: 55.5 to 56.5 °C for the first, 298 to 300 °C for the second.

First: COC(=O)c1ccc(-c2ccc3cc4c(cc3c2)C(C)(C)CCC4(C)C)cc1O
Second: CC1(C)CCC(C)(C)c2cc(C(O)COc3ccc(CO)c(O)c3)ccc21 (configuration not stated)
The melting point of the first is higher: 145 to 146 °C for the first, 110 to 115 °C for the second.

First: N#Cc1c(NCc2ccc(N)cc2)n[nH]c1N
Second: N#Cc1ccc2nc3cscc3c(=O)n2c1
The melting point of the first is lower: 168 to 170 °C for the first, 233 to 234 °C for the second.

`COc1ccc(C(=O)Nc2ccc3c(c2)CCCC3=O)cc1` and `CC(C)c1ccc(NC(=O)C2CCCc3ccccc32)cc1` (configuration not stated) cannot be ordered by melting point: 163 to 166 °C for the first, 163 °C for the second.

Compared with `O=C(O)/C=C/c1ccc(-c2nc3c(=O)n(CC4CCC4)c(=O)n(CC4CCC4)c3[nH]2)cc1`, `O=C(Nc1ccc(O)cn1)C(CC1CCCC1)c1ccc(Cl)c(Cl)c1` (configuration not stated) is lower in melting point: greater than 300 °C for the first, 79 to 81 °C for the second.

First: Cc1cccc(S(=O)(=O)N2CCCC2c2ccc(F)cc2)c1 (racemic)
Second: CS(=O)(=O)c1ccc2c(c1)C(=O)CC1(CCN(C(=O)c3ccccc3)CC1)O2
The melting point of the first is lower: 102 °C for the first, 155 to 157 °C for the second.

Compared with `O=Cc1ccc(-c2cnc3cnc(-c4ccc(O)cc4)nc3c2)cc1`, `CCNC(=O)c1ccc(-c2ccc3nnn(Cc4ccc5ncccc5c4)c3n2)cc1Cl` is lower in melting point: greater than 268 °C for the first, 187 to 190 °C for the second.

First: O=C(O)C1=Cc2cc(Cl)c(Oc3ccc([N+](=O)[O-])cc3)cc2OC1C(F)(F)F (configuration not stated)
Second: O=C(c1ccc([N+](=O)[O-])cc1)N1CCCCc2sc(Cl)c(Cl)c21
The melting point of the first is higher: 246 to 248 °C for the first, 140 to 142 °C for the second.

Going from `N#Cc1cc(N)ccc1N1CCC(N2CCSCC2)CC1` to `COc1cc2c(Nc3ccc(Oc4ccccc4)cc3)c(C#N)cnc2cc1OCCN1CCC(N2CCCCC2)CC1`, the melting point rises from 138 °C to 141 °C.

First: O=C(c1cc(Br)ccc1[N+](=O)[O-])C(Br)C(Br)c1ccc(Br)cc1 (configuration not stated)
Second: O=C(O)c1cccc(C(=O)O)c1Nc1cccc(I)c1
The melting point of the first is lower: 200 to 201 °C for the first, 214 to 216 °C for the second.

First: O=[N+]([O-])C=C1SCCCN1S(=O)(=O)CCCO
Second: CS(=O)(=O)CCCC(=O)NNC(=O)N1Cc2ccccc2Oc2ccc(Cl)cc21
The melting point of the first is lower: 80 to 83 °C for the first, 198 to 199 °C for the second.

Compared with `CC(C)(C)c1cc(Cc2cc(C(C)(C)C)cc(C(C)(C)C)c2O)c(O)c(-n2nc3ccccc3n2)c1`, `COc1ccc(-c2cc(C(C)(C)C)c(O)c(C(C)(C)C)c2)cc1` is lower in melting point: 208 °C for the first, 109 to 110 °C for the second.

First: CC(Oc1ccc(-c2ccc(Cl)cc2Cl)cc1)C(O)CCc1cccnc1 (configuration not stated)
Second: CN(c1ccc(Cl)cc1)c1nc(=O)c2ccc(-c3ccccc3)nc2s1
The melting point of the first is lower: 98 to 100 °C for the first, 279 to 280 °C for the second.

First: O=C(O)CNC(=O)Nc1ccc(Cl)cc1
Second: CC(C)c1cc(C=CC(=O)Nc2ccc(C(=O)O)cc2)oc1C(C)C
The melting point of the first is higher: 218 °C for the first, 131 to 133 °C for the second.

Compared with `CCc1nc2c(cnn2CC)c(NC2CCOCC2)c1CNC(=O)c1cccc(C(=O)NCc2ccc(Cl)c(-c3cccc(CN4CC(C)NC(C)C4)c3)c2)c1` (configuration not stated), `CC(C)C[C@@H](NC(=O)c1cnc(N2CCC(N3C(=O)OCc4ccccc43)CC2)c(Cl)c1)C(N)=O` is higher in melting point: 121 to 124 °C for the first, 139 to 142 °C for the second.

First: CCCCc1c[nH]c2cccc(SC)c2c1=O
Second: CCOC(=O)c1c(-c2ccccc2Cl)c2cc(C(C)C)ccc2[nH]c1=O
The melting point of the first is lower: 144 °C for the first, 173 to 174 °C for the second.

First: CC(C)(C)n1nnc(NC(=O)C(c2ccccc2)c2ccccc2)n1
Second: O=C(c1ccccc1)c1ccccc1N1C=NC(CCl)(C(=O)O)N1 (configuration not stated)
The melting point of the first is higher: 191 to 192 °C for the first, 90 to 93 °C for the second.

First: COCCNc1cc(C)n(COC)c(=O)c1[N+](=O)[O-]
Second: CN(C)CCNS(=O)(=O)c1ccc(O)cc1
The melting point of the first is higher: 172 to 173 °C for the first, 165 to 168 °C for the second.

First: COc1cc2c(c(OC)c1)C1CCC3(C)C(O)CCC3C1CC2 (configuration not stated)
Second: O=C1CCC(N2Cc3c(OCC4COc5ccccc5C4)cccc3C2=O)C(=O)N1 (configuration not stated)
The melting point of the first is lower: 53 to 55 °C for the first, 258 to 260 °C for the second.

First: O=C(NC(=O)c1c(F)cccc1F)Nc1cc(C(F)(F)F)c(Cl)cc1Br
Second: CCOC(=O)CN(C(=S)Nc1cc(Cl)ccc1C)c1ccccc1
The melting point of the first is higher: 196 °C for the first, 148 to 150 °C for the second.

First: N#CNC=NCc1ncc(C(F)(F)F)cc1Cl
Second: Cc1oc(-c2ccccc2)nc1COc1ccc(CN(O)C(N)=O)cc1Cl
The melting point of the first is lower: 106 to 108 °C for the first, 180 to 182 °C for the second.

First: C=C1C(C(=O)c2ccccc2)CC(O[Si](c2ccccc2)(c2ccccc2)C(C)(C)C)C1COC(c1ccccc1)(c1ccccc1)c1ccccc1 (configuration not stated)
Second: COc1cc(C(=O)NS(=O)(=O)c2ccccc2C)ccc1Cc1cn(C(=O)NC(c2ccccc2)c2ccccc2)c2ccc(NC(=O)OC3CCCC3)cc12
The melting point of the first is lower: 142 to 144 °C for the first, 253 to 254 °C for the second.

First: Cc1ccc(Cl)c(N2C(=O)C(=O)c3ccccc32)c1Cl
Second: O=Cc1cccc(OCCCN2C(=O)c3ccccc3C2=O)c1
The melting point of the first is higher: 164 to 166 °C for the first, 102 to 104 °C for the second.

First: Cc1nc2c(C)cc(Oc3cnc(N)nc3N)c(C(C)C)c2o1
Second: CCc1cc(Nc2ccc(Sc3ccncc3)cc2)nc(N)n1
The melting point of the first is higher: greater than 300 °C for the first, 181 to 186 °C for the second.

First: CC1(c2ccc3c(c2)C(c2ccccc2)=NCC(=C[N+](=O)[O-])N3)OCCO1
Second: O=C(O)C1CCc2c(c3cc(OCc4ccccc4)ccc3n2C(=O)c2ccccc2)C1 (configuration not stated)
The melting point of the first is lower: 158 to 161 °C for the first, 193 to 194 °C for the second.

First: CC=C(Cc1ccccc1)NNC(=O)OC(C)(C)C
Second: COC(=O)Nc1nc(Cc2ccccc2)c(C(=O)c2sc(NC(=O)OC)nc2Cc2ccccc2)s1
The melting point of the first is lower: 76 to 79 °C for the first, 189 to 190 °C for the second.

First: CC(C)(C)C(NC(=O)Cc1ccc2ncccc2c1)NC(=NC#N)Nc1cccc2ncccc12 (configuration not stated)
Second: COc1ccc(S(=O)(=O)c2ncccn2)cc1
The melting point of the first is higher: 150 to 151 °C for the first, 72 °C for the second.

Compared with `CC(CCNC(=O)c1ccc(Cl)nc1)n1ccnc1` (configuration not stated), `CCCCCCCCCC(=O)Nc1ccc(S(=O)(=O)Nc2nnc(CC)s2)cc1` is lower in melting point: 137 to 139 °C for the first, 121 to 122 °C for the second.

Work on `CSC(=NC#N)N1CCc2nc(N)sc2C1` yielded a melting point of 152 to 155 °C.

From a melting point compilation (Tetko et al.; mined from patent text by program, amines drawn as free bases though some values may be those of a salt)
